Test results reported in patent US12310975B2, “Modulators of BCL6 proteolysis and associated methods of use” (Arvinas Operations, Inc., priority 2019, dated 2025).
Like-named read-outs stand apart in the source and are kept apart here.

Molecular target: BCL6 (Homo sapiens (Human), UniProt P41182)
Experiment: Immunofluorescence high content imaging of BCL6 degradation in T47D cells
Assay type: cell-based
Conditions: for DC50: class symbols A-D, read-out: EC50 (nM)*
Protocol: Immunofluorescence Protocol for High Cotent Imaging of BCL6
T47D cells were seeded in 100 μl volume of RPMI1640-10% FBS in a 96-well black/clear bottom plates for adherent lines (Corning #3904).
Day 1. T47D breast cancer epithelial cells were seeded at a density so that confluence is ˜70-90% at endpoint. Cells were seeded at 7K/0.1 ml/well the morning prior to the addition of exemplary bifunctional degradation compounds.
Day 2. Prepare an 11 point 3-fold serial dilution of exemplary bifunctional compound in DMSO and aliquot an appropriate volume to cell growth media to generate a 2× final concentration of exemplary bifunctional compound. Add an equal volume (0.1 ml) of 2× exemplary bifunctional compound/media mix to previously plated cells, for a final top concentration in aqueous cell growth media of 0.1 or 1 μM. Incubate for 3 days at 37° C., 5% CO2.
Day 5 Immunofluorescence. Discard cell media. Wash wells with 200 μl of room temperature phosphate-buffered saline (PBS). Prepared 4% paraformaldehyde (PFA) from 16% PFA (Electron Microscopy Sciences #15710) using 1×PBS. Fifty μl of 4% PF was added to each well and incubate for 15 minutes at room temperature to fix the cells. The PFA was aspirated and the cells washed twice with PBS (200 μl)).
Prepared 0.1% Triton X-100 in PBS using 10% triton X-100 stock. The cells were permeabilized by adding 100 ul of the 0.1% Triton X-100 in PBS to each well to permeabilize cells and incubating at room temperature for 15 minutes. Cells were washed twice with PBS.
Prepared 3% BSA/PBS (from Thermofisher #37515 Blocker BSA in TBS, 10%), and 100 ul was added to each well. The cells were incubated for at least 1 hour at room temperature.
Prepared 1% BSA/PBS using Blocker BSA/PBS, and the 3% BSA/PBS removed from the wells.
For no primary antibody controls, 50 μl 1% BSA/PBS was added.
Primary antibody (BCL6 Rb Ab, CST-14895, Cell Signaling) was diluted 1:300 in 1% BSA/PBS using Blocker BSA/PBS.
Fifty μl of primary antibody added to all remaining wells (i.e., all wells other than the primary antibody controls) and the cells were incubated overnight at 4° C. with slow orbital movement.
Day 6. Contents of the wells was removed and the cells washed four times with 200 ul PBS. 1% BSA/PBS was prepared using Blocker BSA in PBS.
Diluted secondary antibody goat anti-Rb IgG Alexa-488 1:1000, and cell mask-Alexa-647 1:3000 in 1% BSA/PBS in the same mix. Add 50 μl to each well and incubate at room temperature for 1 hour in the dark.
Cells were washed three times with 200 ul PBS, and then incubated for 10 minutes with 100 ul Hoechst dye at 1 μg/mL (20 mM stock) to stain cell nuclei. Wells were then washed with 200 μl PBS, and 100 ul of PBS was added to each well and the plate covered plate with a plastic opaque cover. Plates were stored at 4° C. and covered in aluminum foil until imaged.
Plates were equilibrated to room temperature prior to reading. The bottom of the plate was wiped with 70% isopropanol immediately prior to imaging.
10×, 4 fields/well, include Top hat smoothing in the analysis protocol.

Row | SMILES | DC50 [nM] | IC50 [nM] | Dmax (T47D) [%] | Dmax (T47D cells) [%] | IC50 (T47D cells) [nM]
1 | CNC(=O)COc1cc2cc(Nc3nc(N4CCC(c5cn(CCOCCOCCOCCOCCOc6ccc7c(c6)C(=O)N(C6CCC(=O)NC6=O)C7=O)nn5)CC4)ncc3Cl)ccc2n(C)c1=O (centres unmarked) [compound 121, 2-((6-((5-chloro-2-(4-(1-(14-((2-(2,6-dioxopiperidin-3-yl)-1,3-dioxoisoindolin-5-yl)oxy)-3,6,9,12-tetraoxatetradecyl)-1H-1,2,3-triazol-4-yl)piperidin-1-yl)pyrimidin-4-yl)amino)-1-methyl-2-oxo-1,2-dihydroquinolin-3-yl)oxy)-N-methylacetamide] | 50 to 100 | – | – | – | –
2 | CNC(=O)COc1cc2cc(Nc3nc(N4CCC(OCCOCCOCCOc5cccc(CCOc6ccc7c(c6)CN(C6CCC(=O)NC6=O)C7=O)c5)CC4)ncc3Cl)ccc2n(C)c1=O (centres unmarked) [compound 100, 2-((6-((5-chloro-2-(4-(2-(2-(2-(3-(2-((2-(2,6-dioxopiperidin-3-yl)-1-oxoisoindolin-5-yl)oxy)ethyl)phenoxy)ethoxy)ethoxy)ethoxy)piperidin-1-yl)pyrimidin-4-yl)amino)-1-methyl-2-oxo-1,2-dihydroquinolin-3-yl)oxy)-N-methylacetamide] | > 100 | – | – | – | –
3 | CNC(=O)COc1cc2cc(Nc3nc(N4CCC(Cc5cn(CCOc6ccc7c(c6)C(=O)N(C6CCC(=O)NC6=O)C7=O)nn5)CC4)ncc3Cl)ccc2n(C)c1=O (centres unmarked) [compound 112, 2-((6-((5-chloro-2-(4-((1-(2-((2-(2,6-dioxopiperidin-3-yl)-1,3-dioxoisoindolin-5-yl)oxy)ethyl)-1H-1,2,3-triazol-4-yl)methyl)piperidin-1-yl)pyrimidin-4-yl)amino)-1-methyl-2-oxo-1,2-dihydroquinolin-3-yl)oxy)-N-methylacetamide] | 10 to 50 | – | – | – | –
4 | CC[C@H]1CN(c2ncc(Cl)c(Nc3ccc4c(c3)cc(OCC(=O)NC)c(=O)n4C(C)C)n2)C[C@@H](COc2ccc3c(c2)C(=O)N(C2CCC(=O)NC2=O)C3=O)O1 (stereo partly drawn) [compound 394, 2-{[6-({5-chloro-2-[(2S,6S)-2-({[2-(2,6-dioxopiperidin-3-yl)-1,3-dioxo-2,3-dihydro-1H-isoindol-5-yl]oxy}methyl)-6-ethylmorpholin-4-yl]pyrimidin-4-yl}amino)-2-oxo-1-(propan-2-yl)-1,2-dihydroquinolin-3-yl]oxy}-N-methylacetamide] | – | – | – | 50 to 70 | < 10
5 | CNC(=O)COc1cc2cc(Nc3nc(N4CCC(OC5CCC6(CC5)CN(c5cccc7c5C(=O)N(C5CCC(=O)NC5=O)C7=O)C6)CC4)ncc3Cl)ccc2n(C(C)C)c1=O (centres unmarked) [compound 434, 2-{[6-({5-chloro-2-[4-({2-[2-(2,6-dioxopiperidin-3-yl)-1,3-dioxo-2,3-dihydro-1H-isoindol-4-yl]-2-azaspiro[3.5]nonan-7-yl}oxy)piperidin-1-yl]pyrimidin-4-yl}amino)-2-oxo-1-(propan-2-yl)-1,2-dihydroquinolin-3-yl]oxy}-N-methylacetamide] | – | – | – | 50 to 70 | < 10
6 | CNC(=O)COc1cc2cc(Nc3nc(N4CCN(CC5CCN(c6ccc(C(=O)NC7CCC(=O)NC7=O)c(OC)c6)CC5)CC4)ncc3Cl)ccc2n(C(C)C)c1=O (centres unmarked) [compound 376, 4-[4-({4-[5-chloro-4-({3-[(methylcarbamoyl)methoxy]-2-oxo-1-(propan-2-yl)-1,2-dihydroquinolin-6-yl}amino)pyrimidin-2-yl]piperazin-1-yl}methyl)piperidin-1-yl]-N-(2,6-dioxopiperidin-3-yl)-2-methoxybenzamide] | – | – | – | 50 to 70 | < 10
7 | CNC(=O)COc1cc2cc(Nc3nc(N4CCC(CN5CCC6(CC5)CN(c5ccc(C(=O)NC7CCC(=O)NC7=O)c(OC)c5)C6)CC4)ncc3Cl)ccc2n(C(C)C)c1=O (centres unmarked) [compound 425, 4-[7-({1-[5-chloro-4-({3-[(methylcarbamoyl)methoxy]-2-oxo-1-(propan-2-yl)-1,2-dihydroquinolin-6-yl}amino)pyrimidin-2-yl]piperidin-4-yl}methyl)-2,7-diazaspiro[3.5]nonan-2-yl]-N-(2,6-dioxopiperidin-3-yl)-2-methoxybenzamide] | – | – | – | 50 to 70 | < 10

The remaining lines, values ahead:

Row | DC50 [nM] | IC50 [nM] | Dmax (T47D) [%] | Dmax (T47D cells) [%] | IC50 (T47D cells) [nM] | SMILES
8 | – | < 10 | ≥ 70 | – | – | CCn1c(=O)c(OCC(=O)NC)cc2cc(Nc3nc(N4CCN(C(C)(C)C5CCN(c6cccc7c6C(=O)N(C6CCC(=O)NC6=O)C7=O)CC5)CC4)ncc3Cl)ccc21 (centres unmarked) [compound 312, 2-{[6-({5-chloro-2-[4-(2-{1-[2-(2,6-dioxopiperidin-3-yl)-1,3-dioxo-2,3-dihydro-1H-isoindol-4-yl]piperidin-4-yl}propan-2-yl)piperazin-1-yl]pyrimidin-4-yl}amino)-1-ethyl-2-oxo-1,2-dihydroquinolin-3-yl]oxy}-N-methylacetamide]
9 | – | 10 to 50 | < 50 | – | – | Cc1nnc(-c2cc3cc(Nc4nc(N5CCN(C(C)(C)C6CCN(c7ccc8c(c7)C(=O)N(C7CCC(=O)NC7=O)C8=O)CC6)CC5)ncc4Cl)ccc3n(C)c2=O)o1 (centres unmarked) [compound 285, 5-(4-{2-[4-(5-chloro-4-{[1-methyl-3-(5-methyl-1,3,4-oxadiazol-2-yl)-2-oxo-1,2-dihydroquinolin-6-yl]amino}pyrimidin-2-yl)piperazin-1-yl]propan-2-yl}piperidin-1-yl)-2-(2,6-dioxopiperidin-3-yl)-2,3-dihydro-1H-isoindole-1,3-dione]
10 | – | – | – | ≥ 70 | < 10 | CNC(=O)COc1cc2cc(Nc3nc(N4CCC5(CC4)CC(OC4CCN(c6cccc7c6C(=O)N(C6CCC(=O)NC6=O)C7=O)CC4)C5)ncc3Cl)ccc2n(C(C)C)c1=O (centres unmarked) [compound 393, 2-{[6-({5-chloro-2-[2-({1-[2-(2,6-dioxopiperidin-3-yl)-1,3-dioxo-2,3-dihydro-1H-isoindol-4-yl]piperidin-4-yl}oxy)-7-azaspiro[3.5]nonan-7-yl]pyrimidin-4-yl}amino)-2-oxo-1-(propan-2-yl)-1,2-dihydroquinolin-3-yl]oxy}-N-methylacetamide]
11 | – | – | – | 50 to 70 | < 10 | CNC(=O)COc1cc2cc(Nc3nc(N4CCC(OC5CC6(CCN(c7ccc8c(c7)CN(C7CCC(=O)NC7=O)C8=O)CC6)C5)CC4)ncc3Cl)ccc2n(C(C)C)c1=O (centres unmarked) [compound 431, 2-{[6-({5-chloro-2-[4-({7-[2-(2,6-dioxopiperidin-3-yl)-1-oxo-2,3-dihydro-1H-isoindol-5-yl]-7-azaspiro[3.5]nonan-2-yl}oxy)piperidin-1-yl]pyrimidin-4-yl}amino)-2-oxo-1-(propan-2-yl)-1,2-dihydroquinolin-3-yl]oxy}-N-methylacetamide]
12 | – | – | – | < 50 | < 10 | CNC(=O)COc1cc2cc(Nc3nc(N4CCN(CC5CCC6(CC5)CN(c5ccc(OC)c7c5C(=O)N(C5CCC(=O)NC5=O)C7=O)C6)CC4)ncc3Cl)ccc2n(C(C)C)c1=O (centres unmarked) [compound 411, 2-{[6-({5-chloro-2-[4-({2-[2-(2,6-dioxopiperidin-3-yl)-7-methoxy-1,3-dioxo-2,3-dihydro-1H-isoindol-4-yl]-2-azaspiro[3.5]nonan-7-yl}methyl)piperazin-1-yl]pyrimidin-4-yl}amino)-2-oxo-1-(propan-2-yl)-1,2-dihydroquinolin-3-yl]oxy}-N-methylacetamide]
13 | – | < 10 | 50 to 70 | – | – | CNC(=O)COc1cc2cc(Nc3nc(N4CCC(CN5CC6(C5)CN(c5cccc7c5C(=O)N(C5CCC(=O)NC5=O)C7=O)C6)CC4)ncc3Cl)ccc2n(C)c1=O (centres unmarked) [compound 256, 2-((6-((5-chloro-2-(4-((6-(2-(2,6-dioxopiperidin-3-yl)-1,3-dioxoisoindolin-4-yl)-2,6-diazaspiro[3.3]heptan-2-yl)methyl)piperidin-1-yl)pyrimidin-4-yl)amino)-1-methyl-2-oxo-1,2-dihydroquinolin-3-yl)oxy)-N-methylacetamide]
